Data reported in patent publication US20250163038A1, “CBL-B MODULATORS AND USES THEREOF” (Nimbus Clio, Inc., priority 2021, published 2025).

Tests used:
[1] = biological target: T1, Recombinant human c-Cbl (aa 47-435) (Homo sapiens, UniProt P22681); test: c-Cbl Biochemical Assay (TR-FRET); settings: hc-Cbl Biochemical Assay (TR-FRET); read-out: TR-FRET hcCbl IC50
T1 sequence (P22681 47-435): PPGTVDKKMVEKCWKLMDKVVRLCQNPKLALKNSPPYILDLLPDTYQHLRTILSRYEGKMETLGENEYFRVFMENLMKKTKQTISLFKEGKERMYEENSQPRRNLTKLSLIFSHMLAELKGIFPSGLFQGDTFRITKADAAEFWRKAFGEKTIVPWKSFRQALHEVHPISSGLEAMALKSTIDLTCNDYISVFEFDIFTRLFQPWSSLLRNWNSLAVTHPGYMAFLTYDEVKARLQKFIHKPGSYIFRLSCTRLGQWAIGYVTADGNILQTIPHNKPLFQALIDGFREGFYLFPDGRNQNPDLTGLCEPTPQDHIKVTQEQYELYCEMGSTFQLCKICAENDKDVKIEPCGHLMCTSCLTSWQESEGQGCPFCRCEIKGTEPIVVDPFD

[2] = biological target: Recombinant human Cbl-b (aa 36-427) (Homo sapiens, UniProt Q13191); test: Cbl-b Biochemical Assay (TR-FRET); settings: read-out: TR-FRET hCbl-b IC50
[3] = test system: Jurkat (clone E6-1) cells with NFAT luciferase reporter; test: Jurkat reporter assay (NFAT Luciferase); assay type: cell-based; settings: Homo sapiens; Jurkat NFAT luciferase reporter cells, anti-CD3 stimulation, 6 hr; read-out: Jurkat NFAT EC50

Chain of Recombinant human Cbl-b (aa 36-427) (Q13191 36-427): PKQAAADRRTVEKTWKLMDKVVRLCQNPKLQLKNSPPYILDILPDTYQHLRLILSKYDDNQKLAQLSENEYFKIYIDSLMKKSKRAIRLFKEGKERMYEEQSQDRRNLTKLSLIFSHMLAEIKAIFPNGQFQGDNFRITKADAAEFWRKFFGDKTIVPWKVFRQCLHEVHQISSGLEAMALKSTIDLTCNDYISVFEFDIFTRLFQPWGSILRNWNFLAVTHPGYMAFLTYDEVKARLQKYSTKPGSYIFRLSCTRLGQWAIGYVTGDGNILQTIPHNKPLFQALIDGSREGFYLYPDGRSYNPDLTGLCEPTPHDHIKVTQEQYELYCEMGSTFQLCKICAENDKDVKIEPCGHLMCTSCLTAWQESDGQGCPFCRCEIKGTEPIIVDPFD

Row | SMILES | IC50 [1] | IC50 [2] | EC50 [3]
1 | Cn1cnnc1-c1cc(F)ccc1-c1cccc(-c2nc3cc(CNCC4CCC4)cc(C(F)(F)F)c3o2)c1 [EM-2, 1-Cyclobutyl-N-((2-(4′-fluoro-2′-(4-methyl-4H-1,2,4-triazol-3-yl)-[1,1′-biphenyl]-3-yl)-7-(trifluoromethyl)benzo[d]oxazol-5-yl)methyl)methanamine] | < 200 nM | < 200 nM | < 200 nM
2 | COC[C@@H](C)NCc1cc(C(F)(F)F)c2oc(-c3cccc(-c4ccc(F)cc4-c4nncn4C)c3)nc2c1 [EN-2, (R)—N-((2-(4′-Fluoro-2′-(4-methyl-4H-1,2,4-triazol-3-yl)-[1,1′-biphenyl]-3-yl)-7-(trifluoromethyl)benzo[d]oxazol-5-yl)methyl)-1-methoxypropan-2-amine] | 200 to 1000 nM | < 200 nM | 200 to 1000 nM
3 | COCC(C)(C)NCc1cc(C(F)(F)F)c2oc(-c3cccc(-c4ccc(F)cc4-c4nncn4C)c3)nc2c1 [EO-2, N-((2-(4′-Fluoro-2′-(4-methyl-4H-1,2,4-triazol-3-yl)-[1,1′-biphenyl]-3-yl)-7-(trifluoromethyl)benzo[d]oxazol-5-yl)methyl)-1-methoxy-2-methylpropan-2-amine] | 200 to 1000 nM | < 200 nM | 1000 to 10000 nM
4 | CC(C)NCc1cc(C(F)(F)F)c2oc(-c3cccc(-c4ccc(F)cc4-c4nncn4C)c3)nc2c1 [EP-2, N-((2-(4′-Fluoro-2′-(4-methyl-4H-1,2,4-triazol-3-yl)-[1,1′-biphenyl]-3-yl)-7-(trifluoromethyl)benzo[d]oxazol-5-yl)methyl)propan-2-amine] | 200 to 1000 nM | < 200 nM | 200 to 1000 nM
5 | Cn1cnnc1-c1cc(F)ccc1-c1cccc(-c2nc3cc(CO)cc(Br)c3o2)c1 [EQ-4, (7-Bromo-2-(4′-fluoro-2′-(4-methyl-4H-1,2,4-triazol-3-yl)-[1,1′-biphenyl]-3-yl)benzo[d]oxazol-5-yl)methanol] | 200 to 1000 nM | 200 to 1000 nM | 1000 to 10000 nM
6 | Cn1cnnc1-c1cc(F)ccc1-c1cccc(-c2nc3cc(CN[C@@H]4CCC[C@@H]4O)cc(Br)c3o2)c1 [ER-2, (1S,2R)-2-(((7-Bromo-2-(4′-fluoro-2′-(4-methyl-4H-1,2,4-triazol-3-yl)-[1,1′-biphenyl]-3-yl)benzo[d]oxazol-5-yl)methyl)amino)cyclopentan-1-ol] | < 200 nM | < 200 nM | < 200 nM
7 | Cn1cnnc1-c1cc(F)ccc1-c1cccc(-c2nc3cc(CO)cc(C4CC4)c3o2)c1 [ES-4, (7-Cyclopropyl-2-(4′-fluoro-2′-(4-methyl-4H-1,2,4-triazol-3-yl)-[1,1′-biphenyl]-3-yl)benzo[d]oxazol-5-yl)methanol] | 200 to 1000 nM | < 200 nM | 1000 to 10000 nM
8 | Cn1cnnc1-c1cc(F)ccc1-c1cccc(-c2nc3cc(CN[C@@H]4CCC[C@@H]4O)cc(C4CC4)c3o2)c1 [ES-6, (1S,2R)-2-(((7-Cyclopropyl-2-(4′-fluoro-2′-(4-methyl-4H-1,2,4-triazol-3-yl)-[1,1′-biphenyl]-3-yl)benzo[d]oxazol-5-yl)methyl)amino)cyclopentan-1-ol] | < 200 nM | < 200 nM | < 200 nM
9 | Cn1cnnc1-c1cc(F)ccc1-c1cccc(-c2nc3cc(CN[C@@H]4CCC[C@@H]4O)ccc3s2)c1 [ET-8, (1S,2R)-2-(((2-(4′-Fluoro-2′-(4-methyl-4H-1,2,4-triazol-3-yl)-[1,1′-biphenyl]-3-yl)benzo[d]thiazol-5-yl)methyl)amino)cyclopentan-1-ol] | < 200 nM | < 200 nM | 200 to 1000 nM
10 | Cn1cnnc1-c1cc(F)ccc1-c1cccc(-c2nc3cc(CNC[C@H]4CCCO4)cc(C(F)(F)F)c3o2)c1 [EU-2, (R)-1-(2-(4′-Fluoro-2′-(4-methyl-4H-1,2,4-triazol-3-yl)-[1,1′-biphenyl]-3-yl)-7-(trifluoromethyl)benzo[d]oxazol-5-yl)-N-((tetrahydrofuran-2-yl)methyl)methanamine] | < 200 nM | < 200 nM | < 200 nM
11 | Cn1cnnc1-c1cc(F)ccc1-c1cccc(-c2nc3cc(CN[C@@H]4CCC[C@@H]4O)cc(C(C)(C)C)c3o2)c1 [EV-9, (1S,2R)-2-(((7-(tert-Butyl)-2-(4′-fluoro-2′-(4-methyl-4H-1,2,4-triazol-3-yl)-[1,1′-biphenyl]-3-yl)benzo[d]oxazol-5-yl)methyl)amino)cyclopentan-1-ol] | < 200 nM | < 200 nM | < 200 nM
12 | Cn1cnnc1-c1cc(F)ccc1-c1cccc(-c2nc3cc(CNCCC(F)F)cc(C(F)(F)F)c3o2)c1 [EW-2, 3,3-Difluoro-N-((2-(4′-fluoro-2′-(4-methyl-4H-1,2,4-triazol-3-yl)-[1,1′-biphenyl]-3-yl)-7-(trifluoromethyl)benzo[d]oxazol-5-yl)methyl)propan-1-amine] | < 200 nM | < 200 nM | < 200 nM
13 | Cn1cnnc1-c1cc(F)ccc1-c1cccc(-c2nc3cc(CO)cc(C(F)F)c3o2)c1 [EX-6, (7-(Difluoromethyl)-2-(4′-fluoro-2′-(4-methyl-4H-1,2,4-triazol-3-yl)-[1,1′-biphenyl]-3-yl)benzo[d]oxazol-5-yl)methanol] | 200 to 1000 nM | 200 to 1000 nM | 1000 to 10000 nM
14 | Cn1cnnc1-c1cc(F)ccc1-c1cccc(-c2nc3cc(CN[C@@H]4CCC[C@@H]4O)cc(C(F)F)c3o2)c1 [EY-2, (1S,2R)-2-(((7-(Difluoromethyl)-2-(4′-fluoro-2′-(4-methyl-4H-1,2,4-triazol-3-yl)-[1,1′-biphenyl]-3-yl)benzo[d]oxazol-5-yl)methyl)amino)cyclopentan-1-ol] | < 200 nM | < 200 nM | < 200 nM
15 | COCCN(Cc1cc(C(F)(F)F)c2oc(-c3cccc(-c4ccc(F)cc4-c4nncn4C)c3)nc2c1)CC(C)(C)O [EZ-3] | 200 to 1000 nM | < 200 nM | 1000 to 10000 nM
16 | Cn1cnnc1-c1ccccc1-c1cccc(-c2nc3cc(CN[C@@H]4CCC[C@H]4O)cc(C(F)(F)F)c3o2)c1 [Example N-1, (1R,2R)-2-(((2-(2′-(4-Methyl-4H-1,2,4-triazol-3-yl)-[1,1′-biphenyl]-3-yl)-7-(trifluoromethyl)benzo[d]oxazol-5-yl)methyl)amino)cyclopentan-1-ol] | 1000 to 10000 nM | < 200 nM | 1000 to 10000 nM
17 | Cn1cnnc1-c1ccccc1-c1cccc(-c2nc3cc(CN[C@H]4CCC[C@@H]4O)cc(C(F)(F)F)c3o2)c1 [Example P-6, (1S,2S)-2-(((2-(2′-(4-Methyl-4H-1,2,4-triazol-3-yl)-[1,1′-biphenyl]-3-yl)-7-(trifluoromethyl)benzo[d]oxazol-5-yl)methyl)amino)cyclopentan-1-ol] | 1000 to 10000 nM | < 200 nM | 1000 to 10000 nM
18 | C[C@H]1CCCN(Cc2cc(C(F)(F)F)c3oc(-c4cccc(-c5ccccc5-c5nncn5C)c4)nc3c2)C1 [Example Q-3, (S)-2-(2′-(4-Methyl-4H-1,2,4-triazol-3-yl)-[1,1′-biphenyl]-3-yl)-5-((3-methylpiperidin-1-yl)methyl)-7-(trifluoromethyl)benzo[d]oxazole] | 1000 to 10000 nM | 200 to 1000 nM | 1000 to 10000 nM
19 | Cn1cnnc1-c1ccccc1-c1cccc(-c2nc3cc(CN[C@@H]4CCC[C@@H]4O)cc(C(F)(F)F)c3o2)c1 [Example R-3, (1S,2R)-2-(((2-(2′-(4-Methyl-4H-1,2,4-triazol-3-yl)-[1,1′-biphenyl]-3-yl)-7-(trifluoromethyl)benzo[d]oxazol-5-yl)methyl)amino)cyclopentan-1-ol] | 1000 to 10000 nM | < 200 nM | 200 to 1000 nM
20 | Cn1cnnc1-c1cc(F)ccc1-c1cccc(-c2nc3cc(CN[C@@H]4CCC[C@@H]4O)cc(C(F)(F)F)c3o2)c1 [Example T-5, (1S,2R)-2-(((2-(4′-Fluoro-2′-(4-methyl-4H-1,2,4-triazol-3-yl)-[1,1′-biphenyl]-3-yl)-7-(trifluoromethyl)benzo[d]oxazol-5-yl)methyl)amino)cyclopentan-1-ol] | 1000 to 10000 nM | < 200 nM | 200 to 1000 nM
21 | C[C@H]1CCCN(Cc2cc(C(F)(F)F)c3oc(-c4cccc(-c5ccc(F)cc5-c5nncn5C)c4)nc3c2)C1 [Example U-1, (S)-2-(4′-Fluoro-2′-(4-methyl-4H-1,2,4-triazol-3-yl)-[1,1′-biphenyl]-3-yl)-5-((3-methylpiperidin-1-yl)methyl)-7-(trifluoromethyl)benzo[d]oxazole] | 1000 to 10000 nM | < 200 nM | 200 to 1000 nM
22 | C[C@@H]1CN(Cc2cc(C(F)(F)F)c3oc(-c4cccc(-c5ccc(F)cc5-c5nncn5C)c4)nc3c2)CCO1 [Example V-1, (R)-2-(4′-Fluoro-2′-(4-methyl-4H-1,2,4-triazol-3-yl)-[1,1′-biphenyl]-3-yl)-5-((2-methylmorpholino)methyl)-7-(trifluoromethyl)benzo[d]oxazole] | 1000 to 10000 nM | < 200 nM | 1000 to 10000 nM
23 | Cn1cnnc1-c1cc(F)ccc1-c1cccc(-c2nc3cc(CN[C@@H]4CCC[C@H]4O)cc(C(F)(F)F)c3o2)c1 [Example W-2, (1R,2R)-2-(((2-(4′-Fluoro-2′-(4-methyl-4H-1,2,4-triazol-3-yl)-[1,1′-biphenyl]-3-yl)-7-(trifluoromethyl)benzo[d]oxazol-5-yl)methyl)amino)cyclopentan-1-ol] | 1000 to 10000 nM | < 200 nM | 200 to 1000 nM
